This is an account of results in patent publication US20230013453A1, “RESVERATROL SKIN PREPARATION” (priority 2021, published 2023).

The data set is described as follows: specification test of 98% trans-resveratrol (FIG. 5): solubility. It counts as physicochemical. The conditions noted are these: extracted or sieved 98% trans-resveratrol. The source says:
It may be in powder form and either white or light yellow in color. […] It is also devoid of any significant amounts of metals, bacteria or other adulterants or additives.

Take `Oc1ccc(/C=C/c2cc(O)cc(O)c2)cc1` [trans-resveratrol]: the solubility in ethanol result is on record as “soluble in ethanol”.
